# In article PMC7274539, “The selective glucocorticoid receptor antagonist CORT125281 has tissue-specific activity” (The Journal of Endocrinology, 2020):
# How the values were obtained:
# HPA-axis activity = system: HPA-axis activity; set-up: method as in Kroon et al. 2018; details: ref Kroon et al. 2018; cited from earlier work
# [1] = system: GR transcriptional activity; assay: Subchronic corticosterone exposure: RT-qPCR of GR and insulin target genes in tissues; type: in vivo, C57Bl/6J mice; details: corticosterone pellet 5 days, 60 mg/kg/day oral gavage
# Description: (§1) All studies involving animals were approved by the institutional ethics committee on animal care and experimentation at the Leiden University Medical Center. The 8-week old male C57Bl/6J mice (Charles River) were housed in ventilated cages with a 12 h light:12 h darkness regime and ad libitum access to food and water. In the acute corticosterone exposure experiments, mice received a synthetic chow diet (Research Diets, New Brunswick, NJ, USA) containing vehicle or CORT125281 (6, 20 or 60 mg/kg/day, Corcept Therapeutics, Menlo Park, CA, USA) for 6 days. […] Mice were treated daily with vehicle, 60 mg/kg mifepristone (Corcept Therapeutics) or 60 mg/kg CORT125281 (dissolved in PBS with 0.1% Tween 80 and 0.5% hydroxypropylmethylcellullose, Corcept Therapeutics) via oral gavage for 5 days, after which mice were killed by CO2 inhalation. Throughout the experiment, body weight was monitored and body composition was determined with EchoMRI™ (Frankfurt, Germany). After 5 days, blood was collected from the lateral tail vain in paraoxon-coated capillaries after a 6-h fast. Plasma triglyceride, total cholesterol, free fatty acid, glucose and insulin levels were determined using commercially available kits (Roche; Instruchemie, Delfzijl, Netherlands and Crystal Chem, Zaandam, Netherlands). Blood concentrations of the major leukocyte classes, that is, lymphocytes, monocytes and eosinophils, were determined in whole blood using an automatic veterinary hematology analysis (Sysmex XT-2000iV; Goffin Meyvis, Etten-Leur, the Netherlands).
# (§2) In both acute and subchronic corticosterone experiments, relevant tissues (including quadriceps muscle, interscapular BAT, gonadal white adipose tissue (WAT), adrenals, spleen, thymus, pituitary and hippocampus) were collected to determine tissue weight and/or for further molecular analysis.
# (§3) Total RNA was isolated from snap-frozen tissues using TriPure isolation reagent (Roche). After reverse transcription to cDNA (Promega), RT-qPCR was performed using IQ SYBR-Green supermix and MyIQ thermal cycler (Bio-RAD CFX96). Primers were tested for high efficiency (90–110%) and for amplification of a single PCR product. All primer sequences are listed in Supplementary Table 1 (see section on supplementary materials given at the end of this article), with the exception of Ncor1 and Ncor2 which were purchased from Qiagen. Fold change expression was calculated using the 2^−ΔΔ^CT method.
# [2] = biological target: T1, human GR ligand-binding domain (Homo sapiens, UniProt P04150); assay: MARCoNI peptide interaction profiling (coregulator-nuclear receptor interaction); type: biochemical; details: CORT125281 1 µM
# T1 construct: purchased Invitrogen PV4689
# T1 sequence (P04150 524-758 limits assumed): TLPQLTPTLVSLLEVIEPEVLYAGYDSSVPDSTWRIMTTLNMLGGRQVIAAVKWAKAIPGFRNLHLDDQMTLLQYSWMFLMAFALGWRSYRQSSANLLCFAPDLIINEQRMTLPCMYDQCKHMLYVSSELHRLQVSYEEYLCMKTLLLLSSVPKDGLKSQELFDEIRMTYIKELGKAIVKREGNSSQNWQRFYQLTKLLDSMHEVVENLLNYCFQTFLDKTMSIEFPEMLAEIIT
# Description: As the assay utilizes human GR, experiments were performed with cortisol rather than corticosterone. […] Incubation was performed at 20°C in a PamStation96 (PamGene International, Den Bosch, Netherlands) for 40 min. Receptor binding to each peptide on the array, reflected by a fluorescent signal, was quantified by analysis of .tiff images using BioNavigator software (PamGene International).
# GR = system: GR; set-up: method as in Lahteenmaki et al. 1987, Kroon et al. 2018; details: half maximal inhibitory concentration of the GR antagonist; ref Lahteenmaki et al. 1987, Kroon et al. 2018; cited from earlier work
# male C57Bl/6J mice = assay: Subchronic corticosterone exposure (pellet): body composition, organ weights, leukocytes, plasma insulin, glucose, lipids; type: in vivo; details: corticosterone pellet 5 days, 60 mg/kg/day oral gavage
# Description: as §1, §2
# [3] = system: GR transcriptional activity; assay: Acute corticosterone exposure or basal conditions: RT-qPCR of GR target genes in tissues; type: in vivo, C57Bl/6J mice
# Description: as §1, §2, §3
# [4] = 60 mg/kg/day, corticosterone 1.5 mg/kg, liver
# [5] = 60 mg/kg/day, without corticosterone exposure
structure (smiles),measurement,setting,value
Cn1ncc(S(=O)(=O)N2CC[C@H]3Cc4c(cnn4-c4ccc(F)cc4)C[C@]3(C(=O)c3cc(C(F)(F)F)ccn3)C2)n1 [CORT125281],diurnal corticosterone rhythm flattened by high-fat diet,HPA-axis activity,restored
same,"expression of insulin target genes G6p and Pepck in liver, Glut4 and Lpl in WAT, Glut4 and Gsk3b in muscle",[1],did not affect
same,"corticosterone-induced expression of GR target genes (Fkbp5, Gilz, Sgk1, Mt2a)","[1]; liver, muscle, BAT, WAT, hippocampus",did not prevent
same,hierarchal clustering of ligand-induced GR-coregulator response profile,[2],clustered with that of mifepristone
same,number of coregulator motifs recruited compared to mifepristone,[2],tended to recruit fewer motifs
same,binding of corepressor motifs of NCOR1 and NCOR2 (SMRT) by ligand-GR complex,[2]; mifepristone 0.1 µM,only very modestly
same,IC50,GR,427 nM
same,HOMA-IR,male C57Bl/6J mice,improved
same,corticosterone-induced alteration in body weight (BW) gain,male C57Bl/6J mice,did not prevent
same,"corticosterone-induced hyperlipidaemia (plasma triglycerides, total cholesterol)",male C57Bl/6J mice,seemed to modestly reduce
same,free fatty acid levels,male C57Bl/6J mice,did not affect
same,glucose levels,male C57Bl/6J mice,improved
same,lean mass (reduced by corticosterone),male C57Bl/6J mice,not altered
same,thymus weight,male C57Bl/6J mice,did not prevent
same,corticosterone-induced hyperinsulinemia,male C57Bl/6J mice; 6-h fast,partially prevented
same,corticosterone-induced mRNA of GR target genes in liver,"[3]; 60 mg/kg/day via food 6 days, corticosterone 1.5 mg/kg s.c. 1 h before killing, liver",complete blockade
same,corticosterone-induced GR target genes in BAT,"[3]; 60 mg/kg/day via food 6 days, corticosterone 1.5 mg/kg, BAT",inhibition of only a subset of corticosterone-induced genes
same,corticosterone-induced GR target genes in WAT,"[3]; 60 mg/kg/day via food 6 days, corticosterone 1.5 mg/kg, WAT",no effects
same,corticosterone-induced GR target genes in hippocampus,"[3]; 60 mg/kg/day via food 6 days, corticosterone 1.5 mg/kg, hippocampus",no effects
same,corticosterone-induced GR target genes in muscle,"[3]; 60 mg/kg/day via food 6 days, corticosterone 1.5 mg/kg, quadriceps muscle",inhibition of only a subset of corticosterone-induced genes
same,corticosterone induction of G6pc in liver,[3]; [4],a similar pattern was observed
same,corticosterone induction of Pepck in liver,[3]; [4],blocked the induction
same,corticosterone induction of Murf1 in muscle,"[3]; 60 mg/kg/day, corticosterone 1.5 mg/kg, muscle",completely blocked
same,mRNA levels of Gilz and G6p in liver,"[3]; 60 mg/kg/day, intact animals without prior corticosterone exposure",inhibited mRNA levels
same,Cd36 expression in BAT,[3]; [5],upregulated
same,GR target gene expression in WAT,[3]; [5],did not affect
same,GR target gene expression in muscle,[3]; [5],did not affect
same,expression of Sgk1 and Mt2a in hippocampus,"[3]; 60 mg/kg/day, without corticosterone exposure, to a very modest extent",downregulated
same,antagonistic actions on corticosterone-induced genes in BAT,"[3]; 6-20 mg/kg/day doses, BAT",completely lost
same,Mt2a expression in liver of solvent-injected mice,"[3]; 6 and 20 mg/kg/day, solvent injection",inhibited
same,"corticosterone-induced GR transcriptional activity of Fkbp5, Gilz, Sgk1 and Mt2a in liver","[3]; lower doses 6 and 20 mg/kg/day, 6 days, corticosterone 1 h before tissue collection",partially inhibited
same,GR transcriptional activity in WAT,"[3]; lower doses 6 and 20 mg/kg/day, WAT",did not inhibit
same,dose required to attenuate corticosterone-induced expression of Fkbp5 and Gilz in liver,"[3]; via food 6 days, liver",20 mg/kg/day
same,dose sufficient to attenuate corticosterone-induced expression of Sgk1 and Mt2a in liver,"[3]; via food 6 days, liver",6 mg/kg/day
